In brackets after ≈: the same amount, converted by molar mass. Read-outs that look alike come from different tables or passages of the source.
What was measured:
Mtb H37Rv [1] = assay: TB MIC - ITR (UIC), Institute for Tuberculosis Research; format: cell-based, Mycobacterium tuberculosis; settings: Tables 1-4; for MIC: Mycobacterium tuberculosis, H37RV, read-out: TB MIC - ITR
NRP Mtb H37Rv cells = assay: Low-oxygen recovery assay (LORA) MIC; format: cell-based, Mycobacterium tuberculosis; settings: for MIC: Mycobacterium tuberculosis, H37RV, read-out: LORA MIC - ITR
Mtb H37Rv [2] = assay: TB MIC - SRI, resazurin-based microplate assay; format: cell-based, Mycobacterium tuberculosis; settings: for MIC: Mycobacterium tuberculosis, H37RV
[3] = Tables 1-4 and text, read-out: TB MIC - SRI

[O-][n+]1nc(N[C@@H]2C[C@H]3CC[C@@H]2C3)[n+]([O-])c2ccc(Cl)cc21 [Compound 15bm, 3-((1R,2R,4S)-bicyclo[2.2.1]heptan-2-ylamino)-7-chlorobenzo[e][1,2,4]triazine 1,4-dioxide]
MIC (Mtb H37Rv [1]): 0.22 µg/mL (≈ 0.717 µM) | MIC (NRP Mtb H37Rv cells; NRP Mtb, Tables 1-4 and text): 0.23 µg/mL (≈ 0.75 µM) | Vero Tox CC50 (Vero cells; African green monkey, 72 h): 1.1 µg/mL | MIC (Mtb H37Rv [2]; [3]): 0.15 µg/mL (≈ 0.489 µM)

CCNc1n[n+]([O-])c2cc(Br)ccc2[n+]1[O-] [Compound 15ca, 7-bromo-3-(ethylamino)benzo[e][1,2,4]triazine 1,4-dioxide]
MIC (Mtb H37Rv [1]): 0.49 µg/mL (≈ 1.72 µM) | MIC (NRP Mtb H37Rv cells; NRP Mtb, Tables 1-4 and text): 0.46 µg/mL (≈ 1.61 µM) | Vero Tox CC50 (Vero cells; African green monkey, 72 h): 4.2 µg/mL | MIC (Mtb H37Rv [2]; [3]): 0.62 µg/mL (≈ 2.17 µM)

[O-][n+]1nc(NC2CCC2)[n+]([O-])c2ccc(Br)cc21 [Compound 15cd, 7-bromo-3-(cyclobutylamino)benzo[e][1,2,4]triazine 1,4-dioxide]
MIC (Mtb H37Rv [1]): 0.46 µg/mL (≈ 1.48 µM) | MIC (NRP Mtb H37Rv cells; NRP Mtb, Tables 1-4 and text): 0.41 µg/mL (≈ 1.32 µM) | Vero Tox CC50 (Vero cells; African green monkey, 72 h): 3.8 µg/mL | MIC (Mtb H37Rv [2]; [3]): 0.15 µg/mL (≈ 0.482 µM)

[O-][n+]1nc(NC2CCCC2)[n+]([O-])c2ccc(Br)cc21 [Compound 15ce, 7-bromo-3-(cyclopentylamino)benzo[e][1,2,4]triazine 1,4-dioxide]
MIC (Mtb H37Rv [1]): 0.35 µg/mL (≈ 1.08 µM) | MIC (NRP Mtb H37Rv cells; NRP Mtb, Tables 1-4 and text): 0.46 µg/mL (≈ 1.41 µM) | Vero Tox CC50 (Vero cells; African green monkey, 72 h): 18 µg/mL | MIC (Mtb H37Rv [2]; [3]): 0.15 µg/mL (≈ 0.461 µM)

[O-][n+]1nc(N[C@@H]2C[C@H]3CC[C@@H]2C3)[n+]([O-])c2ccc(Br)cc21 [Compound 15cm, 3-((1R,2R,4S)-bicyclo[2.2.1]heptan-2-ylamino)-7-bromobenzo[e][1,2,4]triazine 1,4-dioxide]
MIC (Mtb H37Rv [1]): 0.36 µg/mL (≈ 1.03 µM) | MIC (NRP Mtb H37Rv cells; NRP Mtb, Tables 1-4 and text): 0.41 µg/mL (≈ 1.17 µM) | Vero Tox CC50 (Vero cells; African green monkey, 72 h): 0.80 µg/mL | MIC (Mtb H37Rv [2]; [3]): 0.31 µg/mL (≈ 0.883 µM)

COc1ccc2c(c1)[n+]([O-])nc(NC1CCC1)[n+]2[O-] [Compound 15dd, 3-(cyclobutylamino)-7-methoxybenzo[e][1,2,4]triazine 1,4-dioxide]
MIC (Mtb H37Rv [1]): 0.96 µg/mL (≈ 3.66 µM) | MIC (NRP Mtb H37Rv cells; NRP Mtb, Tables 1-4 and text): 0.9 µg/mL (≈ 3.43 µM) | Vero Tox CC50 (Vero cells; African green monkey, 72 h): 9.8 µg/mL | MIC (Mtb H37Rv [2]; [3]): 0.62 µg/mL (≈ 2.36 µM)

COc1ccc2c(c1)[n+]([O-])nc(N[C@@H]1C[C@H]3CC[C@@H]1C3)[n+]2[O-] [Compound 15dm, 3-((1R,2R,4S)-bicyclo[2.2.1]heptan-2-ylamino)-7-methoxybenzo[e][1,2,4]triazine 1,4-dioxide]
MIC (Mtb H37Rv [1]): 0.97 µg/mL (≈ 3.21 µM) | MIC (NRP Mtb H37Rv cells; NRP Mtb, Tables 1-4 and text): 1.6 µg/mL (≈ 5.29 µM) | Vero Tox CC50 (Vero cells; African green monkey, 72 h): >50 µg/mL | MIC (Mtb H37Rv [2]; [3]): 0.62 µg/mL (≈ 2.05 µM)

CCNc1n[n+]([O-])c2cccc(C)c2[n+]1[O-] [Compound 15ea, Ethyl-(5-methyl-1,4-dioxy-benzo[1,2,4]triazin-3-yl)-amine]
TB MIC - ITR (Mtb H37Rv [1]): 0.51 µg/mL | LORA MIC - ITR (NRP Mtb H37Rv cells; NRP Mtb, Tables 1-4 and text): 0.48 µg/mL | Vero Tox CC50 (Vero cells): 22 µg/mL | MIC, H37Rv (Mtb H37Rv [2]; Table 5): 0.62 µg/mL (≈ 2.82 µM) | TB MIC - SRI (Mtb H37Rv [2]; Tables 1-4 and text): 0.62 µg/mL

Cc1cccc2c1[n+]([O-])c(NC1CCC1)n[n+]2[O-] [Compound 15ed, 3-(cyclobutylamino)-5-methylbenzo[e][1,2,4]triazine 1,4-dioxide]
MIC (Mtb H37Rv [1]): 0.47 µg/mL (≈ 1.91 µM) | MIC (NRP Mtb H37Rv cells; NRP Mtb, Tables 1-4 and text): 0.43 µg/mL (≈ 1.75 µM) | Vero Tox CC50 (Vero cells; African green monkey, 72 h): 22 µg/mL | MIC (Mtb H37Rv [2]; [3]): 0.31 µg/mL (≈ 1.26 µM)

[O-][n+]1nc(NC2CCC2)[n+]([O-])c2cc3c(cc21)CCC3 [Compound 15fd, Cyclobutyl-(5,8-dioxy-2,3-dihydro-1H-5,6,8-triaza-cyclopenta[b]naphthalen-7-yl)-amine]
TB MIC - ITR (Mtb H37Rv [1]): 0.96 µg/mL | LORA MIC - ITR (NRP Mtb H37Rv cells; NRP Mtb, Tables 1-4 and text): 0.44 µg/mL | Vero Tox CC50 (Vero cells): 34 µg/mL | MIC, H37Rv (Mtb H37Rv [2]; Table 5): 0.62 µg/mL (≈ 2.28 µM) | TB MIC - SRI (Mtb H37Rv [2]; Tables 1-4 and text): 0.62 µg/mL

[O-][n+]1nc(N[C@@H]2C[C@H]3CC[C@@H]2C3)[n+]([O-])c2cc3c(cc21)CCC3 [Compound 15fm, 3-((1R,2R,4S)-bicyclo[2.2.1]heptan-2-ylamino)-7,8-dihydro-6H-indeno[5,6-e][1,2,4]triazine 1,4-dioxide]
MIC (Mtb H37Rv [1]): 0.93 µg/mL (≈ 2.98 µM) | MIC (NRP Mtb H37Rv cells; NRP Mtb, Tables 1-4 and text): 0.36 µg/mL (≈ 1.15 µM) | Vero Tox CC50 (Vero cells; African green monkey, 72 h): >50 µg/mL | MIC (Mtb H37Rv [2]; [3]): 1.2 µg/mL (≈ 3.84 µM)

COc1cc2c(cc1C)[n+]([O-])nc(NC1CCC1)[n+]2[O-] [Compound 15gd, 3-(cyclobutylamino)-6-methoxy-7-methylbenzo[e][1,2,4]triazine 1,4-dioxide]
MIC (Mtb H37Rv [1]): 5.1 µg/mL (≈ 18.5 µM) | MIC (NRP Mtb H37Rv cells; NRP Mtb, Tables 1-4 and text): 2.9 µg/mL (≈ 10.5 µM) | Vero Tox CC50 (Vero cells; African green monkey, 72 h): >50 µg/mL | MIC (Mtb H37Rv [2]; [3]): 2.5 µg/mL (≈ 9.05 µM)

COc1cc2c(cc1C)[n+]([O-])nc(N[C@@H]1C[C@H]3CC[C@@H]1C3)[n+]2[O-] [Compound 15gm, 3-((1R,2R,4S)-bicyclo[2.2.1]heptan-2-ylamino)-6-methoxy-7-methylbenzo[e][1,2,4]triazine 1,4-dioxide]
MIC (Mtb H37Rv [1]): 5.6 µg/mL (≈ 17.7 µM) | MIC (NRP Mtb H37Rv cells; NRP Mtb, Tables 1-4 and text): 3.5 µg/mL (≈ 11.1 µM) | Vero Tox CC50 (Vero cells; African green monkey, 72 h): >50 µg/mL | MIC (Mtb H37Rv [2]; [3]): 5 µg/mL (≈ 15.8 µM)

CCN(CC)c1n[n+]([O-])c2ccccc2[n+]1[O-] [Compound 17o, 3-(diethylamino)benzo[e][1,2,4]triazine 1,4-dioxide]
MIC (Mtb H37Rv [1]): 0.46 µg/mL (≈ 1.96 µM) | MIC (NRP Mtb H37Rv cells; NRP Mtb, Tables 1-4 and text): 1.3 µg/mL (≈ 5.55 µM) | Vero Tox CC50 (Vero cells; African green monkey, 72 h): 12 µg/mL | MIC (Mtb H37Rv [2]; [3]): 0.31 µg/mL (≈ 1.32 µM)

[O-][n+]1nc(N2CCOCC2)[n+]([O-])c2ccccc21 [Compound 17p, 3-morpholinobenzo[e][1,2,4]triazine 1,4-dioxide]
MIC (Mtb H37Rv [1]): 3.7 µg/mL (≈ 14.9 µM) | MIC (NRP Mtb H37Rv cells; NRP Mtb, Tables 1-4 and text): 19 µg/mL (≈ 76.5 µM) | Vero Tox CC50 (Vero cells; African green monkey, 72 h): 5.4 µg/mL | MIC (Mtb H37Rv [2]; [3]): 2.5 to 5 µg/mL (≈ 10.1 to 20.1 µM)

[O-][n+]1nc(N2CCCCC2)[n+]([O-])c2cc3c(cc21)CCC3 [Compound 20r, 3-(piperidin-1-yl)-7,8-dihydro-6H-indeno[5,6-e][1,2,4]triazine 1,4-dioxide]
MIC (Mtb H37Rv [1]): 0.4 µg/mL (≈ 1.4 µM) | MIC (NRP Mtb H37Rv cells): 0.49 µg/mL (≈ 1.71 µM) | Vero Tox CC50 (Vero cells; African green monkey, 72 h): 21 µg/mL | MIC (Mtb H37Rv [2]; Table 5, read-out: MIC, H37Rv): 0.62 µg/mL (≈ 2.17 µM)

CN(C)c1n[n+]([O-])c2cc3c(cc2[n+]1[O-])CCC3 [Compound 20s, 3-(dimethylamino)-7,8-dihydro-6H-indeno[5,6-e][1,2,4]triazine 1,4-dioxide]
MIC (Mtb H37Rv [1]): 0.3 µg/mL (≈ 1.22 µM) | MIC (NRP Mtb H37Rv cells): 1.5 µg/mL (≈ 6.09 µM) | Vero Tox CC50 (Vero cells; African green monkey, 72 h): 24 µg/mL | MIC (Mtb H37Rv [2]; Table 5, read-out: MIC, H37Rv): 0.62 µg/mL (≈ 2.52 µM)

CN(CCc1ccccc1)c1n[n+]([O-])c2cc3c(cc2[n+]1[O-])CCC3 [Compound 20u, 3-(methyl(phenethyl)amino)-7,8-dihydro-6H-indeno[5,6-e][1,2,4]triazine 1,4-dioxide]
MIC (Mtb H37Rv [1]): 0.24 µg/mL (≈ 0.713 µM) | MIC (NRP Mtb H37Rv cells; NRP Mtb, Tables 1-4 and text): 0.44 µg/mL (≈ 1.31 µM) | Vero Tox CC50 (Vero cells; African green monkey, 72 h): 40 µg/mL | MIC (Mtb H37Rv [2]; Table 5, read-out: MIC, H37Rv): 0.31 µg/mL (≈ 0.922 µM)

O=S1(=O)CCN(c2n[n+]([O-])c3cc4c(cc3[n+]2[O-])CCC4)CC1 [Compound 20v, 3-(thiomorpholinosulfone-1-yl)-7,8-dihydro-6H-indeno[5,6-e][1,2,4]triazine 1,4-dioxide]
TB MIC - ITR (Mtb H37Rv [1]): 15 µg/mL | LORA MIC - ITR (NRP Mtb H37Rv cells; NRP Mtb, Tables 1-4 and text): 30 µg/mL | Vero Tox CC50 (Vero cells): 17 µg/mL | TB MIC - SRI (Mtb H37Rv [2]; Tables 1-4 and text): 5.0 µg/mL

CC1CCCCN1c1n[n+]([O-])c2cc3c(cc2[n+]1[O-])CCC3 (stereo not shown) [Compound 20w, 3-(2-methylpiperidin-1-yl)-7,8-dihydro-6H-indeno[5,6-e][1,2,4]triazine 1,4-dioxide]
MIC (Mtb H37Rv [1]): 0.66 µg/mL (≈ 2.2 µM) | MIC (NRP Mtb H37Rv cells; NRP Mtb, Tables 1-4 and text): 0.47 µg/mL (≈ 1.56 µM) | Vero Tox CC50 (Vero cells; African green monkey, 72 h): >50 µg/mL | MIC (Mtb H37Rv [2]; Table 5, read-out: MIC, H37Rv): 1.2 µg/mL (≈ 4 µM)

CS(=O)(=O)N1CCN(c2n[n+]([O-])c3cc4c(cc3[n+]2[O-])CCC4)CC1 [Compound 20x, 3-(4-(methylsulfonyl)piperazin-1-yl)-7,8-dihydro-6H-indeno[5,6-e][1,2,4]triazine 1,4-dioxide]
MIC (Mtb H37Rv [1]): 13 µg/mL (≈ 35.6 µM) | MIC (NRP Mtb H37Rv cells; NRP Mtb, Tables 1-4 and text): 15 µg/mL (≈ 41 µM) | Vero Tox CC50 (Vero cells; African green monkey, 72 h): >50 µg/mL | MIC (Mtb H37Rv [2]; [3]): 2.5 to 5 µg/mL (≈ 6.84 to 13.7 µM) | TB MIC - SRI (Mtb H37Rv [2]; Tables 1-4 and text): 5.0 µg/mL

CO[C@H]1/C=C/O[C@@]2(C)Oc3c(C)c(O)c4c(O)c(c(/C=N/N5CCN(C)CC5)c(O)c4c3C2=O)NC(=O)/C(C)=C\C=C\[C@H](C)[C@H](O)[C@@H](C)[C@@H](O)[C@@H](C)[C@H](OC(C)=O)[C@@H]1C [RIF, Rifampin, reference compound]
MIC (Mtb H37Rv [1]): 0.041 µg/mL (≈ 0.0498 µM) | MIC (NRP Mtb H37Rv cells; NRP Mtb, Tables 1-4 and text): 2 µg/mL (≈ 2.43 µM) | Vero Tox CC50 (Vero cells; African green monkey, 72 h): >50 µg/mL | MIC (Mtb H37Rv [2]; [3]): 0.003 µg/mL (≈ 0.00365 µM)

Reference: US9663478B2, “Benzotriazine oxides as drugs targeting Mycobacterium tuberculosis” (priority 2011, dated 2017)
